This passage reports EC50, bioavailability and AUC results from patent US9139524B2, “Fluorinated bridged spiro[2.4]heptane derivatives as ALX receptor agonists” (Actelion Pharmaceuticals Ltd., priority 2012, dated 2015).

For one data set, the target named is T1, human ALX receptor (Homo sapiens, UniProt P25090).
T1 construct: expressed in transfected cells; host or cells: HEK293 (HEK293-hALXR-Gα16)
T1 sequence (P25090 1-351): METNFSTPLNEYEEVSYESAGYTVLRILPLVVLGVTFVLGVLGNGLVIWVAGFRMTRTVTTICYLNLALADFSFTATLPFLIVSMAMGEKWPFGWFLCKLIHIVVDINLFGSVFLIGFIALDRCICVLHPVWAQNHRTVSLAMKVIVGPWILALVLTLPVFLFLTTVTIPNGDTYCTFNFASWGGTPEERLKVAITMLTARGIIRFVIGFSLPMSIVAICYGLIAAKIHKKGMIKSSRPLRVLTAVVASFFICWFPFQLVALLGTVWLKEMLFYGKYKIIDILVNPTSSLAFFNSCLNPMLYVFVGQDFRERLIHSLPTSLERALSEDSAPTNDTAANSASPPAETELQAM
The data set can be described thus: Intracellular calcium measurements (FLIPR), ALX receptor agonistic activity. To be noted: HEK293-hALXR-Gα16 cells; values normalized to WKYMVm 10 nM; read-out: EC50 (agonistic activity with respect to the ALX receptor). The class given is cell-based. As to the method:
The ALX receptor agonistic activities of the compounds of formula (I) are determined in accordance with the following experimental method.
Cells expressing recombinant human ALX receptor and the G-protein Gα16 (HEK293-hALXR-Gα16) were grown to 80% confluency in Growing Medium (GM). Cells were detached from culture dishes with a cell dissociation buffer (Invitrogen, 13151-014), and collected by centrifugation at 1′000 rpm at rt for 5 min in Assay Buffer (AB) (equal parts of Hank's BSS (Gibco, 14065-049) and DMEM without Phenol Red (Gibco, 11880-028)). After 60 min incubation at 37° C. under 5% CO2 in AB supplemented with 1 μM Fluo-4 (AM) (Invitrogen, F14202) and 20 mM HEPES (Gibco, 15630-056), the cells were washed and resuspended in AB. They were then seeded onto 384-well FLIPR assay plates (Greiner, 781091) at 50′000 cells in 70 μl per well and sedimented by centrifugation at 1′000 rpm for 1 min. Stock solutions of test compounds were made up at a concentration of 10 mM in DMSO, and serially diluted in AB to concentrations required for activation dose response curves. WKYMVm (Phoenix Peptides) was used as a reference agonist. A FLIPR Tetra instrument (Molecular Devices) was operated according to the manufacturer's standard instructions, adding 4 μl of test compound dissolved at 10 mM in DMSO and diluted prior to the experiment in assay buffer to obtain the desired final concentration. Changes in fluorescence were monitored before and after the addition of test compounds at lex=488 nm and lem=540 nm. Emission peak values above base level after compounds addition were exported after base line subtraction. Values were normalized to high-level control (WKYMVm compound, 10 nM final concentration) after subtraction of the base line value (AB addition).

The nature of data set [1]: Determination of pharmacokinetic parameters in rats after single oral or intravenous administration. The class given is in vivo. Conditions: Wistar, plasma, rat, p.o. 1 mg/kg; for bioavailability: oral, calculated with a reference AUC after iv administration of solutions at 1 mg/kg, read-out: F (bioavailability); for AUC: po, read-out: AUC (area under curve after p.o. administration). As to the method: The goal of the study was to evaluate the pharmacokinetics of compounds after a single oral administration or after an intravenous route in normal, conscious rats.
• Anaesthesia: Wistar rats were pretreated with 0.03 mg/kg Buprenorphine s.c. (an analgesic-stock solution at 0.03 mg/ml) and 30 minutes later they were anaesthetized with a mixture of 90 mg/kg Ketamine and 10 mg/kg Xylazine i.p. or under Isoflurane inhalation anesthesia. • Rat preparation: The top of the head and the neck were shaved and disinfected with Merfen and Betadine. • Surgery: While under (isoflurane) anaesthesia, an incision was made above 1.5 cm at the top of the head (between the ears) in order to fix the anchor button. A second incision was made above 1.5-2 cm on the neck (near the right clavicle). A catheter (ID/DI: 0.508 mm, Ulrich Swiss) was tunnelled with a trocar under the skin and an access port was fixed with 4-0 silk. The catheter was then filled with a heparinized saline solution (100 Ul/ml), clamped with a hemostat to prevent loss of saline, and the wound was closed with tissue adhesive (3M Vetbond). Next, the jugular vein was isolated and ligated cranially with 4-0 silk, a second ligature, placed caudal to the first ligature, was not tightened. Using iridectomy scissors, a V-shaped hole was cut in the vein, and the catheter was gently pushed into the vessel. All ligatures were then tied around the vessel and the catheters. A NaCl-heparin 100 Ul flush was made to test the blood flow. The wound was then closed with tissue adhesive and a suture. Flush again. • Post operative care: After the operation each animal was housed separately in a small box with food (directly on the floor of the box) and water ad libitum and access to solid drink. One to two days were allowed for recovery from surgery prior to the experiment. The day following the operation, animals were flushed with NaCl-heparin 100 Ul/mL and blood collection tubes were prepared with 10 μl EDTA added to each tube. • Experiment: Tested compounds were given at 1 mg/kg orally and intravenously. The oral formulation was as a solution in Gelatine (98% of a 7.5% Gelatine solution in Water and 2% DMSO) and the intravenous formulation was a solution in water with pH adjustment or in cyclodextrine (5% DMSO, 95% HPBCD30% (w/v)). After application of the test-compound (p.o. or i.v.), blood samples ([…]) were taken at different times. The samples were immediately put in ice before being centrifuged (4° C., 8 min, 16000 g). The plasma was then aspirated and placed into a 96 well plate. The plate was kept at −20° C. until analysis could be performed. • Plasma concentration of the compound was determined using a LC-MS/MS method.

Each structure is given as a SMILES string.

Usually EC50 stands for the concentration at which the effect is half-maximal. For `O=C(N[C@H]1CCNC[C@H]1F)[C@H]1[C@H](C(=O)NCc2ccc(Br)cc2F)[C@@H]2CC[C@H]1C21CC1` (mixture of isomers) [Example 4, (1S,2R,3R,4R)—N^2-(4-Bromo-2-fluorobenzyl)-N^3-(cis-3-fluoropiperidin-4-yl)spiro[bicyclo[2.2.1]heptane-7,1′-cyclopropane]-2,3-dicarboxamide], the EC50 at human ALX receptor was 12.7 nM.
Regarding `O=C(N[C@@H]1CNC[C@@H]1F)[C@H]1[C@H](C(=O)NCc2ccc(Br)cc2F)[C@@H]2CC[C@H]1C21CC1` (mixture of isomers) [Example 5, (1S,2R,3R,4R)—N^2-(4-Bromo-2-fluorobenzyl)-N^3-(cis-4-fluoropyrrolidin-3-yl)spiro[bicyclo[2.2.1]heptane-7,1′-cyclopropane]-2,3-dicarboxamide], on human ALX receptor, the EC50 was determined as 300 nM.
Still for that read-out and setting: next, `O=C(N[C@@H]1CNC[C@H]1F)[C@H]1[C@H](C(=O)NCc2ccc(Br)cc2F)[C@@H]2CC[C@H]1C21CC1` (mixture of isomers) [Example 6, (1S,2R,3R,4R)—N^2-(4-Bromo-2-fluorobenzyl)-N^3-(trans-4-fluoropyrrolidin-3-yl)spiro[bicyclo[2.2.1]heptane-7,1′-cyclopropane]-2,3-dicarboxamide]: 4.5 nM.
In the case of `O=C(N[C@@H]1CCNC[C@H]1F)[C@H]1[C@H](C(=O)NCc2ccc(Br)cc2F)[C@@H]2CC[C@H]1C21CC1` (single isomer, unassigned; diastereoisomer 1) [Example 2], the EC50 at human ALX receptor worked out at 1.9 nM.
What is called bioavailability is dose-corrected exposure relative to a reference, in per cent. For the compound `O=C(N[C@@H]1CCNC[C@H]1F)[C@H]1[C@H](C(=O)NCc2ccc(Br)cc2F)[C@@H]2CC[C@H]1C21CC1` (single isomer, unassigned; diastereoisomer 2) [Example 3], in data set [1], the bioavailability is 12% and the AUC came to 49.9 ng·h/mL. The concentration for a half-maximal effect (EC50) on human ALX receptor turned out to be 2 nM.
For `O=C(NC1CCNCC1(F)F)[C@H]1[C@H](C(=O)NCc2ccc(Br)cc2F)[C@@H]2CC[C@H]1C21CC1` (stereo partly drawn) [Example 1, (1S,2R,3R,4R)—N^2-(4-Bromo-2-fluorobenzyl)-N^3-(3,3-difluoropiperidin-4-yl)spiro[bicyclo[2.2.1]heptane-7,1′-cyclopropane]-2,3-dicarboxamide], the EC50 at human ALX receptor stood at 41 nM.
Regarding `O=C(NC1CCNCC1)[C@H]1[C@H](C(=O)NCc2ccc(Br)cc2F)[C@@H]2CC[C@H]1C21CC1` [Reference Example 2, (1S,2R,3R,4R)—N^2-(4-Bromo-2-fluorobenzyl)-N^3-(piperidin-4-yl)spiro[bicyclo[2.2.1]heptane-7,1′-cyclopropane]-2,3-dicarboxamide, reference compound], in data set [1], the bioavailability is 0.3% and the AUC turned out to be 6.34 ng·h/mL.
